These results are taken from ChEMBL document CHEMBL3621169, “Synthesis of tetrazole compounds as a novel type of potential antimicrobial agents and their synergistic effects with clinical drugs and interactions with calf thymus DNA” (Medchemcomm, 2015).

In brackets after ≈: the same amount, converted by molar mass.

Type in all cases: functional
One test has as its system Cyberlindnera jadinii. The test is described as follows: Antifungal activity against Candida utilis ATCC 9950 after 24 hrs by micro broth dilution method. The conditions noted are these: Williopsis jadinii, ATCC 9950, 24 h. Background: Dilution methods test growth across graded concentrations, often in twofold steps.
A further test has as its system Candida. Put plainly: Antifungal activity against Candida mycoderma after 24 hrs by micro broth dilution method.
In a further test the test system is Pseudomonas aeruginosa. Put plainly: Antibacterial activity against Pseudomonas aeruginosa ATCC 27853 after 24 hrs by micro broth dilution method. The conditions noted are these: ATCC 27853, 24 h.
The subject of a further test is Candida albicans. Put plainly: Antifungal activity against Candida albicans ATCC 90029 after 24 hrs by micro broth dilution method. The conditions noted are these: ATCC 90029, 24 h.
The subject of a further test is Micrococcus luteus. The test is described as follows: Antibacterial activity against Micrococcus luteus ATCC 4698 after 24 hrs by micro broth dilution method. The conditions noted are these: ATCC 4698, 24 h.
Test [1] deals with Staphylococcus aureus. The test is described as follows: Antibacterial activity against methicillin-resistant Staphylococcus aureus N315 after 24 hrs by micro broth dilution method. The conditions noted are these: N315, 24 h.
The test system of the next test is Bacillus sp. Put plainly: Antibacterial activity against Bacillus proteus ATCC 13315 after 24 hrs by micro broth dilution method. The conditions noted are these: Bacillus sp. (in: firmicutes), ATCC 13315, 24 h.
The next test deals with Bacillus spizizenii. Put plainly: Antibacterial activity against Bacillus subtilis ATCC 6633 after 24 hrs by micro broth dilution method. The conditions noted are these: ATCC 6633, 24 h.
For the next test, the system named is Escherichia coli. The test is described as follows: Antibacterial activity against Escherichia coli DH52 after 24 hrs by micro broth dilution method. The conditions noted are these: DH52, 24 h.
Another test relates to Aspergillus flavus. Put plainly: Antifungal activity against Aspergillus flavus after 24 hrs by micro broth dilution method.
A further test deals with Shigella dysenteriae. Put plainly: Antibacterial activity against Shigella dysenteriae ATCC 51252 after 24 hrs by micro broth dilution method. The conditions noted are these: ATCC 51252, 24 h.
For test [2], the system named is Staphylococcus aureus. Put plainly: Antibacterial activity against Staphylococcus aureus ATCC 25923 after 24 hrs by micro broth dilution method. The conditions noted are these: ATCC 25923, 24 h.

Consider `CCCCCCCCCCN(CC#N)c1ccccc1`, for which the minimum inhibitory concentration (MIC) with Cyberlindnera jadinii was determined as 256 µg/mL (≈ 940 µM); against Candida, 128 µg/mL (≈ 470 µM); with Pseudomonas aeruginosa, 256 µg/mL (≈ 940 µM); against Candida albicans it was 128 µg/mL (≈ 470 µM); with Micrococcus luteus, 128 µg/mL (≈ 470 µM); against Staphylococcus aureus [1], 128 µg/mL (≈ 470 µM). Besides, the MIC is 128 µg/mL (≈ 470 µM) against Bacillus sp.; 64 µg/mL (≈ 235 µM) in the test on Bacillus spizizenii; 64 µg/mL (≈ 235 µM) against Escherichia coli; 128 µg/mL (≈ 470 µM) against Aspergillus flavus; 512 µg/mL (≈ 1880 µM) against Shigella dysenteriae; 128 µg/mL (≈ 470 µM) in the test on Staphylococcus aureus [2].
For `N#CCN(Cc1ccc(Cl)cc1)c1ccccc1`, the MIC in the test on Cyberlindnera jadinii is 128 µg/mL (≈ 499 µM); in the test with Candida, 128 µg/mL (≈ 499 µM); in the test with Pseudomonas aeruginosa, 64 µg/mL (≈ 249 µM); in the test with Candida albicans it was 128 µg/mL (≈ 499 µM); in the test with Micrococcus luteus it was 128 µg/mL (≈ 499 µM); against Staphylococcus aureus [1], 256 µg/mL (≈ 997 µM). Moreover, the MIC against Bacillus sp. came to 128 µg/mL (≈ 499 µM); against Bacillus spizizenii, 128 µg/mL (≈ 499 µM); against Escherichia coli it was 128 µg/mL (≈ 499 µM); with Aspergillus flavus, 256 µg/mL (≈ 997 µM); with Shigella dysenteriae, 128 µg/mL (≈ 499 µM); in the test with Staphylococcus aureus [2], 128 µg/mL (≈ 499 µM).
As to `CCCCCCN(CC#N)c1ccccc1`, the MIC against Cyberlindnera jadinii turned out to be 256 µg/mL (≈ 1180 µM); in the test with Candida it was 256 µg/mL (≈ 1180 µM); in the test with Pseudomonas aeruginosa it was 512 µg/mL (≈ 2370 µM); with Candida albicans, 256 µg/mL (≈ 1180 µM); against Micrococcus luteus, 256 µg/mL (≈ 1180 µM); against Staphylococcus aureus [1] it was 512 µg/mL (≈ 2370 µM). The MIC turned out to be 256 µg/mL (≈ 1180 µM) in the test on Bacillus sp.; 256 µg/mL (≈ 1180 µM) with Bacillus spizizenii; 128 µg/mL (≈ 592 µM) with Escherichia coli; 128 µg/mL (≈ 592 µM) in the test with Aspergillus flavus; 512 µg/mL (≈ 2370 µM) with Shigella dysenteriae; 256 µg/mL (≈ 1180 µM) with Staphylococcus aureus [2].
`N#CCN(Cc1ccc(Cl)cc1Cl)c1ccccc1`: the MIC worked out at 128 µg/mL (≈ 440 µM) in the test on Cyberlindnera jadinii; 64 µg/mL (≈ 220 µM) in the test on Candida; 256 µg/mL (≈ 879 µM) in the test with Pseudomonas aeruginosa; 128 µg/mL (≈ 440 µM) against Candida albicans; 256 µg/mL (≈ 879 µM) with Micrococcus luteus; 256 µg/mL (≈ 879 µM) with Staphylococcus aureus [1]. Also, the MIC in the test with Bacillus sp. worked out at 256 µg/mL (≈ 879 µM); against Bacillus spizizenii, 128 µg/mL (≈ 440 µM); with Escherichia coli, 128 µg/mL (≈ 440 µM); with Aspergillus flavus it was 256 µg/mL (≈ 879 µM); in the test with Shigella dysenteriae it was 256 µg/mL (≈ 879 µM); with Staphylococcus aureus [2], 256 µg/mL (≈ 879 µM).
Regarding `N#CCN(Cc1ccccc1Cl)c1ccccc1`, the minimum inhibitory concentration (MIC) amounted to 64 µg/mL (≈ 249 µM) against Cyberlindnera jadinii; 64 µg/mL (≈ 249 µM) against Candida; 128 µg/mL (≈ 499 µM) against Pseudomonas aeruginosa; 128 µg/mL (≈ 499 µM) against Candida albicans; 256 µg/mL (≈ 997 µM) in the test with Micrococcus luteus; 128 µg/mL (≈ 499 µM) in the test on Staphylococcus aureus [1]. Besides, the minimal inhibitory concentration (MIC) in the test with Bacillus sp. was 128 µg/mL (≈ 499 µM); against Bacillus spizizenii it was 256 µg/mL (≈ 997 µM); in the test with Escherichia coli, 256 µg/mL (≈ 997 µM); in the test with Aspergillus flavus, 128 µg/mL (≈ 499 µM); in the test on Shigella dysenteriae it was 128 µg/mL (≈ 499 µM); in the test with Staphylococcus aureus [2], 128 µg/mL (≈ 499 µM).
Regarding `N#CCN(Cc1ccc(F)cc1F)c1ccccc1`, the minimum inhibitory concentration (MIC) against Cyberlindnera jadinii was 512 µg/mL (≈ 1980 µM); in the test on Candida, 256 µg/mL (≈ 991 µM); against Pseudomonas aeruginosa it was 128 µg/mL (≈ 496 µM); in the test on Candida albicans, 128 µg/mL (≈ 496 µM); against Micrococcus luteus, 256 µg/mL (≈ 991 µM); against Staphylococcus aureus [1], 256 µg/mL (≈ 991 µM). In addition, the MIC is 256 µg/mL (≈ 991 µM) in the test with Bacillus sp.; 256 µg/mL (≈ 991 µM) against Bacillus spizizenii; 64 µg/mL (≈ 248 µM) against Escherichia coli; 256 µg/mL (≈ 991 µM) against Aspergillus flavus; 256 µg/mL (≈ 991 µM) in the test on Shigella dysenteriae; 128 µg/mL (≈ 496 µM) against Staphylococcus aureus [2].
With `CCCCCCCCN(CC#N)c1ccccc1`, the MIC against Cyberlindnera jadinii stood at 256 µg/mL (≈ 1050 µM); in the test with Candida, 64 µg/mL (≈ 262 µM); in the test on Pseudomonas aeruginosa, 512 µg/mL (≈ 2100 µM); with Candida albicans, 256 µg/mL (≈ 1050 µM); against Micrococcus luteus, 256 µg/mL (≈ 1050 µM); in the test on Staphylococcus aureus [1], 256 µg/mL (≈ 1050 µM). For the same compound, the MIC was found to be 256 µg/mL (≈ 1050 µM) with Bacillus sp.; 256 µg/mL (≈ 1050 µM) in the test on Bacillus spizizenii; 128 µg/mL (≈ 524 µM) against Escherichia coli; 256 µg/mL (≈ 1050 µM) against Aspergillus flavus; 512 µg/mL (≈ 2100 µM) in the test with Shigella dysenteriae; 256 µg/mL (≈ 1050 µM) against Staphylococcus aureus [2].
For the compound `COc1ccc(N(CC#N)Cc2ccc(F)cc2F)cc1`, the MIC stood at 128 µg/mL (≈ 444 µM) against Cyberlindnera jadinii; 256 µg/mL (≈ 888 µM) against Candida; 128 µg/mL (≈ 444 µM) against Pseudomonas aeruginosa; 128 µg/mL (≈ 444 µM) against Candida albicans; 128 µg/mL (≈ 444 µM) in the test with Micrococcus luteus; 256 µg/mL (≈ 888 µM) against Staphylococcus aureus [1]. Also, the MIC turned out to be 256 µg/mL (≈ 888 µM) against Bacillus sp.; 128 µg/mL (≈ 444 µM) against Bacillus spizizenii; 256 µg/mL (≈ 888 µM) in the test on Escherichia coli; 128 µg/mL (≈ 444 µM) in the test on Aspergillus flavus; 256 µg/mL (≈ 888 µM) with Shigella dysenteriae; 256 µg/mL (≈ 888 µM) in the test with Staphylococcus aureus [2].
For `CCCCCCCCCCCCN(CC#N)c1ccccc1`, the minimal inhibitory concentration (MIC) was determined as 256 µg/mL (≈ 852 µM) against Cyberlindnera jadinii; 256 µg/mL (≈ 852 µM) in the test on Candida; 512 µg/mL (≈ 1700 µM) in the test on Pseudomonas aeruginosa; 256 µg/mL (≈ 852 µM) against Candida albicans; 128 µg/mL (≈ 426 µM) in the test on Micrococcus luteus; 512 µg/mL (≈ 1700 µM) in the test with Staphylococcus aureus [1]. The MIC with Bacillus sp. was 512 µg/mL (≈ 1700 µM); in the test on Bacillus spizizenii, 256 µg/mL (≈ 852 µM); in the test on Escherichia coli, 256 µg/mL (≈ 852 µM); against Aspergillus flavus it was 128 µg/mL (≈ 426 µM); against Shigella dysenteriae, 512 µg/mL (≈ 1700 µM); against Staphylococcus aureus [2], 256 µg/mL (≈ 852 µM).
For the compound `OC(Cn1cncn1)(Cn1cncn1)c1ccc(F)cc1F` [FLUCONAZOLE], the MIC in the test on Cyberlindnera jadinii is 1 µg/mL (≈ 3.27 µM); in the test with Candida, 2 µg/mL (≈ 6.53 µM); against Candida albicans, 0.5 µg/mL (≈ 1.63 µM); against Aspergillus flavus, 64 µg/mL (≈ 209 µM).

In general, MIC refers to the smallest concentration in the dilution series that meets the test's criterion for growth inhibition.
